Results reported in ChEMBL document CHEMBL1122995, “1-[3-(Diarylamino)propyl]piperidines and related compounds, potential antipsychotic agents with low cataleptogenic profiles” (J Med Chem, 1985).
Values joined by “and” are separate entries in the source; they are usually repeats but may differ in a detail not shown here. Identical values can stand only once.

Columns and labels:
[1] = species on record: Rattus norvegicus; test: Effective dose determined by suppression of high base-line self-stimulation in adult male hooded rats; assay type: functional
[2] = test system: Mus musculus; test: Lowest active dose for the inhibition of locomotor screen falloff test, ip; assay type: functional
[3] = species on record: Rattus norvegicus; test: Effective dose against [3H]haloperidol binding in rat striatal membranes; assay type: functional; details: Striatum, Membrane
[4] = species on record: Rattus norvegicus; test: Effective dose determined by catalepsy test in rat; assay type: functional
[5] = target: Dopamine receptor; test: Inhibition of [3H]haloperidol binding to dopamine receptors in rat striatal membranes.
[6] = target: Dopamine receptor (Rattus norvegicus) (UniProt P25115+P19020+P30729+P18901+P61169); test: Inhibition of [3H]haloperidol binding to dopamine receptors in rat striatal membranes at 10e-8 M.; assay type: cell membranes; details: Membrane

SMILES | ED50 [1] [mg/kg] | LAD [2] | ED50 [3] [nM] | ED50 [4] [mg/kg] | IC50 [5] [nM] | inhibition [6] [%]
Oc1nc2ccccc2n1C1=CCN(CCCN(c2ccc(F)cc2)c2ccc(F)cc2)CC1 | 5.55 | 30 mg/kg | 0.32 | 105 |  | 
Oc1nc2cc(Cl)c(Cl)cc2n1C1CCN(CCCN(c2ccc(F)cc2)c2ccc(F)cc2)CC1 |  | >100 mg/kg |  |  |  | 
O=C(c1ccc(Cl)cc1)C1CCN(CCCN(c2ccc(F)cc2)c2ccc(F)cc2)CC1 |  | >100 mg/kg |  |  |  | 
O=C1NCN(c2ccccc2)C12CCN(CCCCN(c1ccc(F)cc1)c1ccc(F)cc1)CC2 |  | >100 mg/kg |  |  |  | 
OC1(c2ccc(Cl)cc2)CCN(CCCN(c2ccc(F)cc2)c2ccc(F)cc2)CC1 | 4.42 | 30 mg/kg |  |  |  | 
O=c1[nH]c2ccccc2n1C1CCN(CCCC(c2ccc(F)cc2)c2ccc(F)cc2)CC1 [PIMOZIDE] |  | <10 mg/kg and 30 mg/kg |  |  |  | 
O=C1NCN(c2ccccc2)C12CCN(CCN(c1ccc(F)cc1)c1ccc(F)cc1)CC2 |  | 100 mg/kg |  |  |  | 
OCCN1CCN(CCCN(c2ccc(F)cc2)c2ccc(F)cc2)CC1 |  | >100 mg/kg |  |  |  | 
O=C1NCN(c2ccccc2)C12CCN(CCCN(c1ccc(F)cc1)c1cccc(Cl)c1)CC2 | 12.7 | 30 mg/kg |  | 289 |  | 
COc1ccccc1N1CCN(CCCN(c2ccc(F)cc2)c2ccc(F)cc2)CC1 | 5.5 | 30 mg/kg |  | 160 | 13 | 
O=[N+]([O-])c1ccc(N(CCCN2CCC(n3c(O)nc4ccccc43)CC2)c2ccccc2)cc1 |  | 100 mg/kg |  |  |  | 17
O=C1NCN(c2ccccc2)C12CCN(CCCN(c1ccccc1)c1ccc(F)cc1)CC2 | 11.7 | 30 mg/kg |  | 156 |  | 
Oc1nc2ccccc2n1C1CCN(CCCN(c2ccccc2)c2cccc(Cl)c2)CC1 |  | >100 mg/kg |  |  |  | 
Fc1ccc(N(CCCN2CCN(c3ccccc3)CC2)c2ccc(F)cc2)cc1 |  | 100 mg/kg |  |  |  | 
O=C1NCN(c2ccccc2)C12CCN(CCCN(c1ccc(F)cc1)c1ccc(F)cc1)CC2 | 1.65 | 5 mg/kg |  | 81.2 | 0.61 | 
Oc1nc2ccccc2n1C1CCN(CCCN(c2ccccc2)c2ccccc2)CC1 | 13.2 | 30 mg/kg |  |  |  | 
Fc1ccc(N(CCCN2CCC(n3c(S)nc4ccccc43)CC2)c2ccc(F)cc2)cc1 |  | >100 mg/kg |  |  |  | 
Oc1nc2cc(Cl)ccc2n1C1CCN(CCCN(c2ccc(F)cc2)c2ccc(F)cc2)CC1 |  | >100 mg/kg |  |  |  | 
Oc1nc2ccccc2n1C1CCN(CCCN(c2ccc(F)cc2)c2ccccc2F)CC1 | 11.3 | 30 mg/kg |  | 156 |  | 92
Oc1nc2ccccc2n1C1CCN(CCCN(c2ccccc2)c2ccc(F)cc2)CC1 | 8.37 | 30 mg/kg |  | 76 |  | 84
Cc1cc2nc(O)n(C3CCN(CCCN(c4ccc(F)cc4)c4ccc(F)cc4)CC3)c2cc1C | > 16 | 30 mg/kg |  |  |  | 
CN1CCN(C2=Nc3cc(Cl)ccc3Nc3ccccc32)CC1 [CLOZAPINE] | 14.3 | 10 mg/kg |  | 133 |  | 
O=C1NCN(c2ccccc2)C12CCN(CCCC(c1ccc(F)cc1)c1ccc(F)cc1)CC2 | 1.28 | <10 mg/kg |  | 10.8 |  | 
